Reference: PubChem BioAssay AID330 (DTP/NCI, 2004)
“And” between values parts separate entries of the source, which are not always exact repeats. Equal entries are not always repeated. Toxic doses and inconclusive results are not listed. Rule for the calls: active = survival T/C of 150% or more; inactive = T/C below 125% in these data.

System: P388 leukemia ip, CD2F1 mice, survival T/C
Assay: NCI In Vivo Anticancer Drug Screen. Data for tumor model P388 Leukemia (intraperitoneal) in CD2F1 (CDF1) mice
Settings: endpoint: median survival time, higher = longer survival
Method in brief: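 Mice carrying the transplanted tumor received test compound or vehicle. Survival was recorded in each group, and the value is the treated-group measurement divided by that of the vehicle-treated control group.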

[1] = dose: 60.0 mg/kg/injection, schedule: Q01DX005 (ip), vehicle: saline
[2] = dose: 50.0 mg/kg/injection, schedule: Q01DX009 (ip), vehicle: saline
[3] = dose: 50.0 mg/kg/injection, schedule: Q01DX005 (ip), vehicle: Klucel (hydroxypropylcellulose) (HPC)
[4] = dose: 100.0 mg/kg/injection, schedule: Q01DX005 (ip), vehicle: Klucel (hydroxypropylcellulose) (HPC)
[5] = dose: 200.0 mg/kg/injection, schedule: Q01DX005 (ip), vehicle: Klucel (hydroxypropylcellulose) (HPC)
[6] = dose: 12.5 mg/kg/injection, schedule: Q01DX009 (ip), vehicle: water
[7] = dose: 25.0 mg/kg/injection, schedule: Q01DX009 (ip), vehicle: water
[8] = dose: 50.0 mg/kg/injection, schedule: Q01DX009 (ip), vehicle: water
[9] = dose: 100.0 mg/kg/injection, schedule: Q01DX009 (ip), vehicle: water
[10] = dose: 50.0 mg/kg/injection, schedule: Q01DX005 (ip), vehicle: saline with Tween-80
[11] = dose: 100.0 mg/kg/injection, schedule: Q01DX005 (ip), vehicle: saline with Tween-80
[12] = dose: 200.0 mg/kg/injection, schedule: Q01DX005 (ip), vehicle: saline with Tween-80
[13] = dose: 12.5 mg/kg/injection, schedule: Q01DX009 (ip), vehicle: distilled water + Tween-80
[14] = dose: 25.0 mg/kg/injection, schedule: Q01DX009 (ip), vehicle: distilled water + Tween-80
[15] = dose: 50.0 mg/kg/injection, schedule: Q01DX009 (ip), vehicle: distilled water + Tween-80
[16] = dose: 100.0 mg/kg/injection, schedule: Q01DX009 (ip), vehicle: distilled water + Tween-80
[17] = dose: 200.0 mg/kg/injection, schedule: Q01DX009 (ip), vehicle: distilled water + Tween-80

Measured: T/C

COc1ccc(-c2cc(-c3cc(-c4ccc(OC)cc4)on3)no2)cc1
inactive: [1] 100 % of control | dose: 120.0 mg/kg/injection, schedule: Q01DX005 (ip), vehicle: saline 92 % of control | dose: 240.0 mg/kg/injection, schedule: Q01DX005 (ip), vehicle: saline 97 % of control

Nc1nc(N)c2nnn(C3OC(CO)C(O)C3O)c2n1 (stereo not drawn)
inactive: dose: 3.0 mg/kg/injection, schedule: Q01DX009 (ip), vehicle: saline 119 % of control | dose: 12.0 mg/kg/injection, schedule: Q01DX009 (ip), vehicle: saline 115 % of control | dose: 12.5 mg/kg/injection, schedule: Q01DX009 (ip), vehicle: saline 122 % of control | dose: 25.0 mg/kg/injection, schedule: Q01DX009 (ip), vehicle: saline 105 % of control | [2] 96 % of control and 105 % of control

Cc1ccccc1N1CCN(C(=O)c2nc3ccccc3[nH]2)CC1
inactive: [3] 91 % of control | [4] 87 % of control | [5] 101 % of control

CCOP(=O)(O)C1CCCC(C)[N-]1.CCOP(=O)(O)C1CCCC(C)[N-]1.[Fe+2] (stereo not drawn)
inactive: dose: 25.0 mg/kg/injection, schedule: Q04DX003 (ip), vehicle: Klucel (hydroxypropylcellulose) (HPC) 101 % of control | dose: 50.0 mg/kg/injection, schedule: Q04DX003 (ip), vehicle: Klucel (hydroxypropylcellulose) (HPC) 95 % of control | dose: 100.0 mg/kg/injection, schedule: Q04DX003 (ip), vehicle: Klucel (hydroxypropylcellulose) (HPC) 100 % of control and 89 % of control

[NH-]C(CO)C(=O)O.[NH-]C(CO)C(=O)O.[Pt+2] (stereo not drawn)
inactive: dose: 3.13 mg/kg/injection, schedule: Q01DX009 (ip), vehicle: water 91 % of control | dose: 6.25 mg/kg/injection, schedule: Q01DX009 (ip), vehicle: water 91 % of control | [6] 97 % of control | [7] 106 % of control | [8] 115 % of control | [9] 115 % of control

Cc1ccc(NS(=O)(=O)N2CCCCC2)cc1
inactive: dose: 12.5 mg/kg/injection, schedule: Q01DX009 (ip), vehicle: Klucel (hydroxypropylcellulose) (HPC) 106 % of control | dose: 25.0 mg/kg/injection, schedule: Q01DX009 (ip), vehicle: Klucel (hydroxypropylcellulose) (HPC) 95 % of control | dose: 50.0 mg/kg/injection, schedule: Q01DX009 (ip), vehicle: Klucel (hydroxypropylcellulose) (HPC) 98 % of control | dose: 100.0 mg/kg/injection, schedule: Q01DX009 (ip), vehicle: Klucel (hydroxypropylcellulose) (HPC) 116 % of control | dose: 200.0 mg/kg/injection, schedule: Q01DX009 (ip), vehicle: Klucel (hydroxypropylcellulose) (HPC) 115 % of control | dose: 400.0 mg/kg/injection, schedule: Q01DX009 (ip), vehicle: Klucel (hydroxypropylcellulose) (HPC) 113 % of control

CCCCCCCCCCCc1c(O)c(O)c(-c2ccccn2)c2nonc12
inactive: [10] 106 % of control | [11] 103 % of control | [12] 98 % of control

CN1C(c2ccccc2)C2CCCC(C2O)C1c1ccccc1 (stereo not drawn)
inactive: dose: 100.0 mg/kg/injection, schedule: Q04DX003 (ip), vehicle: saline 97 % of control | dose: 200.0 mg/kg/injection, schedule: Q04DX003 (ip), vehicle: saline 100 % of control | dose: 400.0 mg/kg/injection, schedule: Q04DX003 (ip), vehicle: saline 98 % of control

CCCC[N+](CCCC)(CCCC)CCCC.O=C([O-])[O-].O=C([O-])[O-].[Co+3].[NH-]CC[NH-]
inactive: dose: 50.0 mg/kg/injection, schedule: Q01DX009 (ip), vehicle: suspension in saline 113 % of control and 123 % of control | dose: 100.0 mg/kg/injection, schedule: Q01DX009 (ip), vehicle: suspension in saline 120 % of control

COC(=O)/C=N/NS(=O)(=O)c1cccc(N)c1
inactive: [6] 99 % of control | [7] 107 % of control | [8] 92 % of control | [9] 99 % of control and 102 % of control | dose: 200.0 mg/kg/injection, schedule: Q01DX009 (ip), vehicle: water 98 % of control

CCOC(=O)c1[nH]c(=O)[nH]c(=O)c1I
inactive: [13] 97 % of control | [14] 105 % of control | [15] 106 % of control | [16] 105 % of control | [17] 105 % of control

CCN(CC)CCO[C@H]1CC[C@@]2(C)C(=CC[C@@H]3[C@@H]2CC[C@]2(C)C(=O)CC[C@@H]32)C1
inactive: dose: 5.0 mg/kg/injection, schedule: Q01DX009 (ip), vehicle: saline with Tween-80 104 % of control | dose: 5.0 mg/kg/injection, schedule: Q04DX003 (ip), vehicle: saline with Tween-80 91 % of control | dose: 10.0 mg/kg/injection, schedule: Q01DX009 (ip), vehicle: saline with Tween-80 91 % of control | dose: 10.0 mg/kg/injection, schedule: Q04DX003 (ip), vehicle: saline with Tween-80 91 % of control | dose: 20.0 mg/kg/injection, schedule: Q01DX009 (ip), vehicle: saline with Tween-80 95 % of control | dose: 20.0 mg/kg/injection, schedule: Q04DX003 (ip), vehicle: saline with Tween-80 100 % of control

COc1ccc(/C=C2/Oc3c(Br)c(OC)cc(OC)c3C2=O)cc1
inactive: dose: 25.0 mg/kg/injection, schedule: Q01DX005 (ip), vehicle: Klucel (hydroxypropylcellulose) (HPC) 98 % of control | [3] 98 % of control | [4] 96 % of control | [5] 97 % of control

CN=C=O
inactive: dose: 6.25 mg/kg/injection, schedule: Q01DX005 (ip), vehicle: water 99 % of control | dose: 12.5 mg/kg/injection, schedule: Q01DX005 (ip), vehicle: water 92 % of control | dose: 25.0 mg/kg/injection, schedule: Q01DX005 (ip), vehicle: water 98 % of control | dose: 50.0 mg/kg/injection, schedule: Q01DX005 (ip), vehicle: water 101 % of control | dose: 100.0 mg/kg/injection, schedule: Q01DX005 (ip), vehicle: water 108 % of control | dose: 200.0 mg/kg/injection, schedule: Q01DX005 (ip), vehicle: water 99 % of control

Cc1ccoc1OP(=O)(N(C)C)N(C)C
inactive: dose: 15.0 mg/kg/injection, schedule: Q01DX005 (ip), vehicle: saline 102 % of control | dose: 30.0 mg/kg/injection, schedule: Q01DX005 (ip), vehicle: saline 100 % of control | [1] 108 % of control

CC(C)(C)[Si](C)(C)ONC(=O)c1ccccc1
inactive: dose: 6.25 mg/kg/injection, schedule: Q01DX009 (ip), vehicle: distilled water + Tween-80 100 % of control | [13] 98 % of control | [14] 107 % of control | [15] 91 % of control | [16] 100 % of control | [17] 98 % of control | dose: 400.0 mg/kg/injection, schedule: Q01DX009 (ip), vehicle: distilled water + Tween-80 100 % of control

Cn1c(C(F)(F)F)nc2nc(Cl)c(Cl)nc21
inactive: dose: 25.0 mg/kg/injection, schedule: Q01DX005 (ip), vehicle: saline with Tween-80 108 % of control | [10] 106 % of control | [11] 101 % of control and 106 % of control | [12] 99 % of control and 103 % of control | dose: 400.0 mg/kg/injection, schedule: Q01DX005 (ip), vehicle: saline with Tween-80 101 % of control

CN(C)C1=CC(=S)NC(c2ccccc2)C1 (stereo not drawn)
inactive: [3] 103 % of control | [4] 100 % of control | [5] 105 % of control

Cc1cc(=O)c2c3c(ccc2[nH]1)Oc1ccccc1O3
inactive: [10] 101 % of control | [11] 101 % of control | [12] 100 % of control

O=C1NC(Cc2ccccc2)C(=O)N2CCCC12 (stereo not drawn)
inactive: [2] 100 % of control | dose: 100.0 mg/kg/injection, schedule: Q01DX009 (ip), vehicle: saline 96 % of control | dose: 200.0 mg/kg/injection, schedule: Q01DX009 (ip), vehicle: saline 101 % of control

CCCCCCCCCCCCCCCC(=O)NCC(=O)NC1C(CO)OC(Nc2ncnc3nc[nH]c23)C(O)C1O (stereo not drawn)
inactive: dose: 0.13 mg/kg/injection, schedule: Q01DX009 (ip), vehicle: water 110 % of control | dose: 0.25 mg/kg/injection, schedule: Q01DX009 (ip), vehicle: water 107 % of control | dose: 1.0 mg/kg/injection, schedule: Q01DX009 (ip), vehicle: water 96 % of control | dose: 2.0 mg/kg/injection, schedule: Q01DX009 (ip), vehicle: water 98 % of control
